Test [1] deals with PyasOBP2. In words: Fluorescence competitive binding assay with 1-NPN as probe. Set-up: species or system Pachyrhinus yasumatsui. To be noted: for IC50 / Ki: PyasOBP2 2 μM, 1-NPN 2 μM; for IC50: ligand 0 to 20 μM, three replicates; for binding to PyasOBP2 (in words): fluorescence competitive binding, ligand up to 20 μM; for Ki: dissociation constant calculated from IC50 by Ki=IC50/(1+[1-NPN]/K1-NPN). As for the experimental part: (§1) Fluorescence competitive binding assays were carried out on an F-2700 fluorescence spectrophotometer (Hitachi, Tokyo, Japan) to determine the binding affinity of PyasOBP2. 1-N-phenyl-naphthylamine (1-NPN) was used as a fluorescent probe ([Pelosi et al., 2006]) with excitation at 337 nm, and the emission spectra were measured from 370 to 550 nm. Based on gas chromatography-mass spectrometry (GC-MS) and previous studies ([Yan et al., 2017]; [Yan et al., 2020]), 38 volatiles derived from Z. jujuba were selected as putative ligands for fluorescence competitive binding assays (Table 2). 1-NPN and all ligands used in binding assays were diluted in methanol to 1 mM stock solutions. To measure the binding affinity of PyasOBP2 with 1-NPN, PyasOBP2 solution (with a final concentration of 2 μM) was titrated with 1-NPN to final concentrations ranging from 2 to 20 μM. In ligand-binding assays, each ligand with a concentration ranging from 0 to 20 μM was added into a mixture of PyasOBP2 (2 μM) and 1-NPN (2 μM), and maximal fluorescence intensities were plotted against ligand concentrations based on three replicates.
The dissociation constant K1-NPN (for PyasOBP2 binding with 1-NPN) was calculated with Scatchard plotting of binding data in the GraphPad Prism 8.0 Software ([Sideris et al., 1992]). The dissociation constant (Ki) of each ligand was calculated with Eq. 3, as described by [Cui et al. (2018)]. The ligand binding affinity to PyasOBP2 was considered as very strong (Ki≤5 μM), strong (5 μM<Ki≤10 μM), moderate (10 μM<Ki≤20 μM) and weak (Ki>20 μM) in this study. Ki=IC50/(1+[1−NPN]/K1−NPN) (3)

The test system of another test is P. yasumatsui adults. Also on record: method as in Yan et al., 2017; Yan et al., 2020. The note with it: volatiles emitted from jujube shoots, ref Yan et al., 2017, 2020; cited from earlier work.
For test [2], the system named is adult P. yasumatsui antennae. Also on record: method as in Yan et al., 2017; Yan et al., 2020. To be noted: ref Yan et al., 2017, 2020; cited from earlier work.
In test [3] the target is PyasOBP2. As to the kind of experiment: Binding of fluorescent probe 1-NPN to PyasOBP2 (titration, Scatchard plot). Set-up: species or system Pachyrhinus yasumatsui. The note with it: PyasOBP2 2 μM titrated with 1-NPN 2 to 20 μM, read-out: dissociation constant of PyasOBP2 with 1-NPN. As for the experimental part: as §1, with “To measure the binding affinity of PyasOBP2 with 1-NPN, PyasOBP2 solution (with a final concentration of 2 μM) was titrated with 1-NPN to final concentrations ranging from 2 to 20 μM.” left out
The dissociation constant K1-NPN (for PyasOBP2 binding with 1-NPN) was calculated with Scatchard plotting of binding data in the GraphPad Prism 8.0 Software ([Sideris et al., 1992]). The dissociation constant (Ki) of each ligand was calculated with Eq. 3, as described by [Cui et al. (2018)]. […]

Broadly, the IC50 is the concentration that inhibits the measured activity by half. As to `CC(C)=CCC/C(C)=C/CC/C(C)=C/CC/C=C(\C)CC/C=C(\C)CCC=C(C)C` [Squalene], on PyasOBP2 [1], the IC50 was > 20 µM and the “binding to PyasOBP2 (in words)” value was “could not bind”.
In general, Ki refers to a measure of affinity in units of concentration, obtained from inhibition or displacement. For `CC(C)=Cc1ccccc1` [2-Methyl-1-phenylpropene], on PyasOBP2 [1], the IC50 was 5.42 µM and the Ki is 4.61 µM.
On to `N#Cc1ccccc1` [Benzonitrile], for which, on PyasOBP2 [1], the IC50 was > 20 µM and the “binding to PyasOBP2 (in words)” value is reported as “could not bind to PyasOBP2”.
For `CC(C)=CCCC(C)=CC#N` [Geranyl nitrile], in that order: > 20 µM and “could not bind to PyasOBP2”.
For `CCCCCC=O` [Caproaldehyde], at PyasOBP2 [1], the IC50 stood at 10.9 µM and the inhibition constant (Ki) was 8.03 µM.
For `CC/C=C\CCOC(=O)C(C)CC` (stereo not drawn) [2-Methylbutyric Acid cis-3-Hexen-1-yl Ester], in that order: 11.9 µM and 10.1 µM.
With `CCOC(=O)CC(C)C` [Ethyl isovalerate], the half-maximal inhibitory concentration (IC50) on PyasOBP2 [1] was > 20 µM.
In the case of `C=C1C2CCC(C2)C1(C)C` (centres unmarked) [Camphene], at PyasOBP2 [1], the IC50 is 8.33 µM and the inhibitory constant (Ki) is 7.08 µM.
For `CC/C=C\CCOC(=O)CC(C)C` [cis-3-Hexenyl 3-methylbutanoate], at PyasOBP2 [1], the IC50 is > 20 µM.
The same measure, in the same setting: the same measure for `CCOC(=O)C(C)CC` (centres unmarked) [Ethyl 2-methylbutyrate]: > 20 µM.
`CC1=CCC2CC1C2(C)C` (stereo not drawn) [α-Pinene]: on PyasOBP2 [1], the IC50 came out at 10.8 µM and the Ki is 9.18 µM.
Consider `CCCC(=O)OCC` [Ethyl butyrate], for which, at PyasOBP2 [1], the IC50 was 3.55 µM and the inhibition constant Ki was 3.02 µM. Besides, the inhibition constant Ki on PyasOBP2 [1] (listed as ethyl butyrate) was < 5 µM.
For `OCc1ccccc1` [Benzyl alcohol], at PyasOBP2 [1], the half-inhibitory concentration (IC50) was determined as 16.2 µM and the inhibition constant (Ki) is 12 µM.
Take `CCCCCCCCC=O` [Nonanal]: on PyasOBP2 [1], the half-inhibitory concentration (IC50) is 15.6 µM and the Ki is 13.2 µM. For the same molecule, on PyasOBP2 [1] (listed as nonanal), the Ki was < 20 µM. In the test on P. yasumatsui adults, the attraction of adults result is “significantly attracted”. The EAG response result in test [2] is recorded as “strong EAG responses”.
As to `CC(C)C=O` [Isobutyraldehyde], at PyasOBP2 [1], the IC50 came out at 13 µM and the Ki is 11 µM.
For `CCCCOC(C)=O` [Butyl acetate] the same measures were > 20 µM and > 20 µM.
Consider `C=C1CC/C=C(\C)CC[C@@H]2[C@@H]1CC2(C)C` [β-Caryophyllene], for which, on PyasOBP2 [1], the concentration for half-maximal inhibition (IC50) was > 20 µM.
In the case of `CC12CCC(CC1)C(C)(C)O2` [Eucalyptol], at PyasOBP2 [1], the concentration for half-maximal inhibition (IC50) came out at 15.1 µM and the inhibitory constant (Ki) is 12.8 µM.
For `CC1=CCC2C(C1)C2(C)C` (centres unmarked) [3-Carene] the same measures were > 20 µM and > 20 µM.
In the case of `C=CC(C)=CCC=C(C)C` [Ocimene], on PyasOBP2 [1], the half-inhibitory concentration (IC50) was found to be 10.5 µM and the Ki is 8.92 µM. On PyasOBP2 [1] (listed as ocimene), the Ki is < 10 µM. In the test with P. yasumatsui adults, the attraction of adults result is “significantly attracted”. Besides, in test [2], the EAG response entry was “strong EAG responses”.
Regarding `C=C/C(C)=C/C/C=C(\C)CCC=C(C)C` [α-farnesene], in the test with P. yasumatsui adults, the attraction of adults result was “significantly attracted”.
As for `CCCCOC(=O)c1ccccc1C(=O)OCCCC` [Dibutyl phthalate], at PyasOBP2 [1], the half-maximal inhibitory concentration (IC50) worked out at 10.5 µM and the Ki was 7.73 µM.
The molecule `CC/C=C\CCO` [cis-3-Hexen-1-ol] returned a concentration for half-maximal inhibition (IC50) on PyasOBP2 [1] of 8.06 µM. Further, the results for the inhibition constant Ki at PyasOBP2 [1] and at PyasOBP2 [1] (listed as cis-3-hexen-1-ol) were 6.85 µM and < 10 µM, respectively.
In the case of `CCCCCCCC=O` [Octanal], at PyasOBP2 [1], the half-inhibitory concentration (IC50) came out at 7.81 µM and the Ki is 6.64 µM.
For `CCC/C=C/C=O` [trans-2-Hexen-1-al] the same measures were 15.8 µM and 13.4 µM.
`CCCCCCCCCCCCCCCC(=O)OC` [Methyl palmitate]: on PyasOBP2 [1], the half-maximal inhibitory concentration (IC50) is > 20 µM, the inhibitory constant (Ki) is > 20 µM and the “binding to PyasOBP2 (in words)” value is “could not bind”. For the same molecule, in the test on P. yasumatsui adults, the attraction of adults result was “significantly attracted”. Besides, the EAG response result in test [2] is on record as “strong EAG responses”.
As for `CCCCC(=O)OCC` [Ethyl valerate], the IC50 at PyasOBP2 [1] is > 20 µM.
Consider `C=CC(C)(O)CCC=C(C)C` (centres unmarked) [Linalool], for which, at PyasOBP2 [1], the IC50 is 11.6 µM and the Ki was 9.88 µM. At PyasOBP2 [1] (listed as linalool), the Ki was < 10 µM.
As to `CCCCCCCC/C=C\CCCCCCCC(=O)OC` [Methyl oleate], at PyasOBP2 [1], the IC50 is > 20 µM and the “binding to PyasOBP2 (in words)” value is listed as “could not bind”.
Turning to `CCCCCCC=O` [Heptaldehyde], on PyasOBP2 [1], the 50% inhibitory concentration (IC50) came to 15.4 µM and the Ki is 11.4 µM.
`CCCCCCCCCCCC` [Dodecane]: on PyasOBP2 [1], the 50% inhibitory concentration (IC50) was > 20 µM and the “binding to PyasOBP2 (in words)” value is “could not bind to PyasOBP2”.
At PyasOBP2 [1], `CCC/C=C/CO` [trans-2-Hexen-1-ol] displayed an IC50 of 8.93 µM. In addition, the inhibition constant (Ki) on PyasOBP2 [1] is 6.6 µM; on PyasOBP2 [1] (listed as trans-2-hexen-1-ol), < 10 µM.
Take `c1ccc(Nc2cccc3ccccc23)cc1` [1-NPN, 1-N-phenyl-naphthylamine]: the Kd on PyasOBP2 [3] is 5.66 µM.
`CC/C=C\CCOC(C)=O` [cis-3-Hexenyl acetate]: the IC50 on PyasOBP2 [1] was > 20 µM.
Take `CC1=CC[C@H](C(C)C)C=C1` [α-Phellandrene]: on PyasOBP2 [1], the half-maximal inhibitory concentration (IC50) turned out to be 10.7 µM and the Ki is 9.12 µM.
As to `C=CC(O)CC` (centres unmarked) [1-Penten-3-ol], the IC50 at PyasOBP2 [1] is > 20 µM.
Turning to `C=CCc1ccc(O)c(OC)c1` [Eugenol], at PyasOBP2 [1], the 50% inhibitory concentration (IC50) is > 20 µM and the “binding to PyasOBP2 (in words)” value is recorded as “could not bind to PyasOBP2”.
As to `C=CC(=C)CCC=C(C)C` [Myrcene], on PyasOBP2 [1], the 50% inhibitory concentration (IC50) came out at 11.8 µM and the inhibition constant (Ki) is 8.92 µM.
Turning to `C=CC(C)(O)CCC=C(C)CCC=C(C)C` (mixture of isomers) [Nerolidol], on PyasOBP2 [1], the IC50 is 7.54 µM. The values for the Ki at PyasOBP2 [1] and on PyasOBP2 [1] (listed as nerolidol) were 6.41 µM and < 10 µM, respectively.
As for `C=C(C)[C@H]1CC=C(C)CC1` [Dipentene], at PyasOBP2 [1], the IC50 was determined as 7.05 µM and the inhibition constant (Ki) was 5.99 µM. On PyasOBP2 [1] (listed as dipentene), the Ki is < 5 µM.
